Several values for one entry are separate records, joined by “and”; a condition that tells them apart may be missing. Identical values can stand only once.
How the values were obtained:
Type in all cases: cell-based
glioma cells = experiment: MTT assay, cytotoxicity in glioma cells; details: Tamoxifen 100 μM, AD7C-NTP 100-1000 ng/ml; for ABS 570-650 Sample: single replicate
Protocol: (§1) Cryopreserved glioma and neuroblastoma cells were acquired from the American Type Culture Collection (ATCC), Virginia. Cells were thawed and diluted in suspension media and centrifuged at 700 rpm for 7 minutes at 4° C. Cell pellets were then resuspended in CACO-2 media and cultured in standard 75 or 175 cm^2 flasks at 37° C., 5% CO2 until approximately confluent. The cells were then trypsinized and resuspended in CACO-2 media to achieve a final cell density of 1.5×10^5 cells/ml. 50 μl aliquots per sample were then added per well to 96 well plates.
(§2) For Experiment I, 50 μl of either PBS (phosphate buffered solution) (negative control), 100 μM tamoxifen in phosphate buffered saline PBS (positive control), or test article were added to each sample culture.
(§3) For Experiment II, 1 mM tamoxifen in DMSO (dimethylsulfoxide) was diluted to 100 μM concentration in CACO-2 media, and 100 μl per well was added to positive control wells. A vehicle control consisting of 1% DMSO in CACO-2 media was also added to this experiment. Other negative controls consisted of human and bovine serum albumin and other nontoxic polypeptides.
(§4) An MTT assay is a sensitive assay for the measurement of cell proliferation based upon the reduction of the tetrazolium salt 3,[4,5-dimethylthiazol-2-yl]-2,5-diphenyltetrazolium bromide (MTT).
(§5) Following incubations with control or test substances, media was aspirated and 100 μl MTT was added to each well. Plates were then incubated for 3 hours at 37° C., 5% CO2. MTT was then replaced with acidified isopropanol (0.4 N HCI) and the plates were stored overnight at 4° C., covered. Plates were then agitated gently for 1 minute on a rotary shaker and the difference between emission absorbance of 570 nm and background absorbance of 650 nm was measured spectrophotometrically on an automated plate reader.
(§6) Neuroblastoma and glioma cells were incubated for 24 hours following treatment with test materials or control solutions. MTT was added to all cultures at this time. Results are expressed as means absorbance differences and represented as per cent of negative control and are shown in Table 1 (cytotoxicity in glioma cells) and Table 2 (cytotoxicity in neuroblastoma cells).
(§7) Glioma cells and neuroblastma cells were used for this experiment. MTT was added to the plates following a 24 hour incubation with control or test solutions. Other plates were replenished with fresh media, control, or test solution at 24 hours and then read 3 days later. Results are expressed as mean absorbance differences and as per cent of negative control and are shown in Table 3 (glioma cells) and Table 4 (neuroblastoma cells).

[1] = MTT assay, cytotoxicity in glioma cells; details: glioma cells (ATCC), per cent of negative control, Tamoxifen 100 μM, AD7C-NTP 100-1000 ng/ml, read-out: Percent Of Viable Cells
Protocol: as §1, §2, §3, §4, §5, §6, §7

neuroblastoma cells = experiment: MTT assay, cytotoxicity in neuroblastoma cells; details: Tamoxifen 100 μM, AD7C-NTP 100-1000 ng/ml; for Sample (absorbance difference): single replicate
Protocol: as §1, §2, §3, §4, §5, §6, §7

[2] = MTT assay, cytotoxicity in neuroblastoma cells; details: neuroblastoma cells (ATCC), per cent of negative control, Tamoxifen 100 μM, AD7C-NTP 100-1000 ng/ml, read-out: Percent Of Viable Cells
Protocol: as §1, §2, §3, §4, §5, §6, §7

Q: With `CC/C(=C(\c1ccccc1)c1ccc(OCCN(C)C)cc1)c1ccccc1` [PC (Tamoxifen), tamoxifen] as the compound, how does the “ABS 570-650 Mean” value (glioma cells; 24 hrs) read?
A: 0.015

Q: What about the “ABS 570-650 Sample” value (glioma cells; 24 hrs) of the same compound?
A: 0.017 and 0.012

Q: And the “ABS 570-650 Mean” value (glioma cells; 4 days)?
A: 0.015

Q: And the “ABS 570-650 Sample” value (glioma cells; 4 days)?
A: 0.018 and 0.012

Q: What about the viability at 24 h, 100 µM ([1]; 24 hrs) of the same compound?
A: 28%

Q: What about the viability at 4 days, 100 µM ([1]; 4 days) of the same compound?
A: 19%

Q: What about the “Mean (absorbance difference)” value (neuroblastoma cells; 24 hour incubation) of the same compound?
A: 0.010

Q: And the “Sample (absorbance difference)” value (neuroblastoma cells; 24 hour incubation)?
A: 0.010 and 0.009

Q: What about the “Mean (absorbance difference)” value (neuroblastoma cells; 4 day incubation) of the same compound?
A: 0.019

Q: And the “Sample (absorbance difference)” value (neuroblastoma cells; 4 day incubation)?
A: 0.016

Q: And the viability at 24 h, 100 µM ([2]; 24 hour incubation)?
A: 14%

Q: What about the viability at 4 days, 100 µM ([2]; 4 day incubation) of the same compound?
A: 25%

— US20030054990A1, “Methods of using neural thread proteins to treat tumors and other conditions requiring the removal or destruction of cells” (Nymox Pharmaceutical Corporation, priority 2001, published 2003)
